This note sets out measurements from patent publication US20230173018A1, “CASPOFUNGIN DERIVATIVES AND ASSAYS FOR EVALUATING ANTIFUNGAL TREATMENT EFFICACY” (priority 2020, published 2023).

Type in all cases: cell-based
Assay [1] relates to C. albicans SC5314 and SN152. Put plainly: Competition for cellular uptake with probe 1, flow cytometry. The note with it: added simultaneously with probe 1; caspofungin 1 μM, 10 μM; fluconazole 10 μM. The protocol: To determine if caspofungin competes for cellular uptake with fluorescent probe 1, both the drug and the probe were added simultaneously to cultures of strains SC5314 and SN152. The uptake of probe 1 was measured by flow cytometry every 15 minutes for 1 hour (FIG. 6B). […] No effect on the uptake of probe 1 was detected in cells co-treated with the antifungal azole drug fluconazole, which inhibits the biosynthesis of fungal membrane sterol, ergosterol.

Assay [2] concerns C. albicans SC5314 and SN152 cells. The experiment in a line: Effect of endocytosis inhibitors on probe 1 uptake, flow cytometry. The note with it: 8 μg/mL inhibitor, 1 μM probe 1, after 30 min, both SC5314 and SN152. The protocol:
Assuming that echinocandin probe uptake occurs via endocytosis, then inhibitors of endocytosis should inhibit probe uptake as well. The accumulation of probe 1 in C. albicans SC5314 and SN152 cells was measured by flow cytometry in the absence and presence of endocytosis inhibitors trifluoperazine (TFP) or pyrroloquinoxaline derivative CGS 12066B (FIG. 6A).
For example, after 30 min, TFP inhibited the uptake of probe 1 by approximately 30% and CGS 12066B inhibited its uptake by approximately 60% in both C. albicans SC5314 and SN152.
A general note: Flow cytometry measures light scatter and fluorescence of single cells or particles in a stream.

Assay [3] deals with C. albicans SC5314 and C. albicans SN152. Put plainly: Effect of endocytosis inhibitors on growth of Candida cells. The note with it: 8 μg/mL, FIGS. 6C-6F.

Take `OC(Cn1cncn1)(Cn1cncn1)c1ccc(F)cc1F` [fluconazole]: in assay [1], the “effect on the uptake of probe 1” value is “No effect”. For `CN1CCN(c2nc3cc(C(F)(F)F)ccc3n3cccc23)CC1.O=C(O)/C=C\C(=O)O.O=C(O)/C=C\C(=O)O` [CGS 12066B], in assay [2], the “inhibition of the uptake of probe 1” value is on record as “approximately 60%”. Also, the effect on growth result in assay [3] is “modestly reduce growth”. Compound `CN1CCN(CCCN2c3ccccc3Sc3ccc(C(F)(F)F)cc32)CC1` [TFP, trifluoperazine] registered an inhibition at 8 µg/mL in assay [2] (Candida albicans, 0.5 h) of about 30%. The effect on growth entry in assay [3] is given as “modestly reduce growth”.

A word on the inhibition: it is how much of the control response was suppressed. Low readings indicate a weak effect, high ones a strong effect.
